Measured values from ChEMBL document CHEMBL3988442, “University of Dundee, Small-Polar-MMV Screening Library” (2021).

target: Tryptophan--tRNA ligase (Mycobacterium tuberculosis (strain ATCC 25618 / H37Rv), UniProt P9WFT3); assay: Biochemical assay for Mt-TrpRS; assay type: functional
Sequence (P9WFT3 whole entry): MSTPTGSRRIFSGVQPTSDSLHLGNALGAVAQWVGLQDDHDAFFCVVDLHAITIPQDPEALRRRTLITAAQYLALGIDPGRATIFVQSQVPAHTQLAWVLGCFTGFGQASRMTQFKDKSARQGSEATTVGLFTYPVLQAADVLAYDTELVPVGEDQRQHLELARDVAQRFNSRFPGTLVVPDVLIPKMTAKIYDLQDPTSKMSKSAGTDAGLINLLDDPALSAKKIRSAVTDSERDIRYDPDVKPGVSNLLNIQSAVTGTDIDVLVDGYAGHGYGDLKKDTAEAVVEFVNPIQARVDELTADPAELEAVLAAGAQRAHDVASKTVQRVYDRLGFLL

SMILES	IC50 [µM]
NC(=O)C1(CCCc2ccccn2)CCCN(Cc2ncc[nH]2)C1 (centres undefined)	> 195
CNCc1cc(F)ccc1Oc1ccc(F)cc1	> 195
Cc1ncsc1CN1CCN(C2CCOCC2)CC(C(N)=O)C1 (centres undefined)	> 195
CNc1cc(C2CCCN2Cc2ccc(OCC(=O)O)cc2)ccn1 (centres undefined)	> 195
CN1CCC(c2cccc(Cc3ccccc3)n2)CC1	> 195
CN(CC(=O)Nc1cccnc1)C1CCCN(c2cccnn2)C1 (centres undefined)	> 195
Nc1cc2c(nn1)CCN(C(=O)C1CCc3ccccc31)C2 (centres undefined)	> 195
CC(C)c1cc(CN2CCC(N)CC2)on1	> 195
Fc1ccccc1OCCc1cc(C2CNCCO2)n[nH]1 (centres undefined)	> 195
Cc1cnccc1-c1cnn(CCNC(=O)c2ccncc2)c1C1CC1	> 195
CC(C)OCCCNC(=O)CS(=O)(=O)Cc1ccc(Cl)cc1	> 195
NCc1cnn(-c2ccccc2C(=O)NCCc2ccccn2)c1	> 195
O=C1CN(C(=O)c2cccc(C(F)(F)F)c2)CC(O)CN1CC1CC1 (centres undefined)	> 195
O=C(COC[C@]12COC[C@H]1CN(C1CCC1)C2)N1CCCC1	> 195
Cn1c(=O)c2cc(C(=O)NCCOCC(F)(F)F)ccc2n(C)c1=O	> 195
CCC(O)CN1CCN(C(=O)c2cc3ccccc3n2CC)CC1 (centres undefined)	> 195
O=C(Cc1cccs1)N1Cc2nc(CN3CCCC3)oc2C1	> 195
CN(Cc1ccc(F)cc1)CC1(O)CCN(C(=O)c2ccsc2)C1 (centres undefined)	> 195
Nc1cnc(-c2ccc(F)cc2Cl)cn1	> 195
CCN(CC1CCOC1)C(=O)c1cc(F)ccc1N1CCN(C)CC1 (centres undefined)	> 195
O=C(Cc1cccs1)N1CCC(O)(CN2CCc3ccccc3C2)C1 (centres undefined)	> 195
COc1ccc(C2Nc3cc(Cl)ccc3C3=NCCN32)cc1O (centres undefined)	> 195

SMILES	IC50 [µM]
Cc1ccc(CN2CCO[C@H]3[C@H](OCc4cccnc4)CC[C@@H]32)o1	> 195
CCO[C@H]1CN(CC2CCOCC2)[C@@H]2CCCO[C@H]12	> 195
O=C(C1CCOC1)N1C[C@@H]2CCN(C(=O)c3cscn3)[C@@H]2C1 (some centres undefined)	> 195
COc1ccccc1CN1CC(O)CN(S(=O)(=O)C(C)C)CC1=O (centres undefined)	> 195
CC(C)NC(=O)c1nc2c(s1)CCCN2C(C)C	> 195
COCC1CC2(CCN(C(=O)c3ccc(F)c(Cl)c3)CC2)CO1 (centres undefined)	> 195
CC(=O)NC[C@]1(O)CCN(C(=O)c2ccc(F)c(Cl)c2)C[C@H]1O	> 195
Cc1nn(C)c(C)c1C1COCCN1C(=O)c1ccc(Cl)o1 (centres undefined)	> 195
COC(=O)c1ccc(CNCc2ccn(C)n2)cc1	> 195
CC(CC#N)n1ccc(C(F)(F)F)n1 (centres undefined)	> 195
COc1ccc2c3c1CN(C(C)=O)CC3=CC(C)(C)CO2	> 195
Cc1cnc(N2CCOC(C(=O)NCc3ccccc3)C2)s1 (centres undefined)	> 195
Cc1sc2c(C3CCCN(C)C3)nc(C)n2c1C (centres undefined)	> 195
OC1CCCN(Cc2ccnc(-c3cccnc3)n2)C1 (centres undefined)	> 195
COCCN1CCc2ncnc(NC3CC3)c2CC1	> 195
CNC(=O)C1(CCCc2ccncc2)CCCCN1 (centres undefined)	> 195
CN(C)c1ccc(CC2COCCN(Cc3nccn3C)C2)nn1 (centres undefined)	> 195
Cc1csc(CCNC(=O)NC(C)Cn2cccn2)n1 (centres undefined)	> 195
COCC(O)CN1CCC(=O)N(Cc2ccco2)Cc2ccccc21 (centres undefined)	> 195
NC(=O)CN1CCC(c2noc3cc(F)ccc23)CC1	> 195
COCCN1CCN(CCS(C)(=O)=O)CC1C (centres undefined)	> 195
CCc1ccc(CN2C[C@H](OC)[C@H]3COC[C@H]32)o1	> 195

SMILES	IC50 [µM]
COCC1CC2(CCN(Cc3nccs3)CC2)CN1Cc1ccccn1 (centres undefined)	> 195
Cn1cc(CCN2CCOC(CNc3cccnn3)C2)cn1 (centres undefined)	> 195
Cc1nc(O)cc(C2CCN(Cc3ccc(F)c(F)c3)C2)n1 (centres undefined)	> 195
Cc1ccc(C(=O)NS(=O)(=O)c2ccccc2Cl)c(=O)[nH]1	> 195
O=C(c1ccc(=O)[nH]n1)N1CCNCC1c1ccccc1 (centres undefined)	> 195
O=S(=O)(c1cccs1)N1CCCC(c2nccs2)C1 (centres undefined)	> 195
Nc1c(N2CCCC2)ncnc1N1CCOCC1	> 195
O=C(NCCc1ccccc1)C1CCN(C(=O)Cn2cncn2)C1 (centres undefined)	> 195
Cc1cnn(CC2CCCN2Cc2nnc(C(C)C)o2)c1 (centres undefined)	> 195
COc1cccc(C2=CCN(CCN3CCOC3=O)CC2)c1	> 195
OCCN1CCCCC1c1cc[nH]n1 (centres undefined)	> 195
CCCS(=O)(=O)N1CC(=O)N(Cc2cccc(OC)c2OC)CC(O)C1 (centres undefined)	> 195
Cc1cc(CN(C)CCC(O)c2ccccc2)no1 (centres undefined)	> 195
CN1CC(=O)c2sc(NCCc3ccccc3)nc2C1	> 195
CC(C)(Oc1ccc(C(N)=O)cc1)C(=O)N(CCC#N)CC1CCCO1 (centres undefined)	> 195
CCOCc1cnc2n1CCN(C(=O)c1ccccc1)C2C (centres undefined)	> 195
COc1ccccc1NC(=O)NCCCC(=O)Nc1cn[nH]c1	> 195
CNC(=O)C1(CCCc2ccncc2)CCN1 (centres undefined)	> 195
Cn1cc(CN2CC[C@H](O)[C@@H](n3ccc(=O)[nH]c3=O)CC2)cn1	> 195
Cc1nc(C)c(C(=O)NCCNC(=O)Cc2ccc(F)cc2)s1	> 195
